Measurements as given in patent US10188634B2, “3-(3H-imidazo[4,5-C]pyridin-2-yl)-1 H-pyrazolo[4,3-B]pyridines and therapeutic uses thereof” (Samumed, LLC, priority 2015, dated 2019).

Legend:
Type in all cases: cell-based
[1] = test system: Wnt activity (Sp5-Luc reporter, human Sp5 promoter with eight TCF/LEF binding sites) in SW480 colon carcinoma cells; assay: Screening assay for Wnt activity: Sp5-Luc reporter gene assay in SW480 cells; conditions: 10-point dose-response starting from 10 μM, overnight incubation
Source text: The screening assay for Wnt activity is described as follows. Reporter cell lines can be generated by stably transducing cancer cell lines (e.g., colon cancer) or primary cells (e.g., IEC-6 intestinal cells) with a lentiviral construct that includes a Wnt-responsive promoter driving expression of the firefly luciferase gene.
SW480 colon carcinoma cells were transduced with a lentiviral vector expressing luciferase with a human Sp5 promoter consisting of a sequence of eight TCF/LEF binding sites. SW480 cells stably expressing the Sp5-Luc reporter gene and a hygromycin resistance gene were selected by treatment with 150 μg/mL of hygromycin for 7 days. These stably transduced SW480 cells were expanded in cell culture and used for all further screening activities. Each compound was dissolved in DMSO as a 10 mM stock and used to prepare compound source plates. Serial dilution (1:3, 10-point dose-response curves starting from 10 μM) and compound transfer was performed using the ECHO 550 (Labcyte, Sunnyvale, Calif.) into 384-well white solid bottom assay plates (Greiner Bio-One) with appropriate DMSO backfill for a final DMSO concentration of 0.1%. For Sp5-Luc reporter gene assays, the cells were plated at 4,000 cells/well in 384-well plates with medium containing 1% fetal bovine serum and incubated overnight at 37° C. and 5% CO2. Following incubation, 20 μl of BrightGlo luminescence reagent (Promega) was added to each well of the 384-well assay plates. The plates were placed on an orbital shaker for 2 min and then luminescence was quantified using the Envision (Perkin Elmer) plate reader. Readings were normalized to DMSO only treated cells, and normalized activities were utilized for EC50 calculations using the dose-response log (inhibitor) vs. response -variable slope (four parameters) nonlinear regression feature available in GraphPad Prism 5.0 (or Dotmatics). For EC50 of >10 μM, the percent inhibition at 10 μM is provided.

SW480 colon cancer cells = assay: Cell viability assay (CellTiter-Blue) in SW480 colon cancer cells; conditions: Homo sapiens, 96 h, four days incubation, CellTiter-Blue cell viability
Method: Representative compounds were screened using the following assay procedure to assess the effect on cell viability as described below.
Each compound was dissolved in DMSO as a 10 mM stock and used to prepare compound source plates. Serial dilution (1:3, 8-point dose-response curves from 10 μM to 0.004 μM) and compound transfer was performed using the ECHO 550 (Labcyte, Sunnyvale, Calif.) into 96-well clear bottom, black-walled plates (Corning-Costar).
Approximately 2×10^3 SW480 colon cancer cells were seeded into each well and allowed to incubate in the presence or absence of compound for four days at 37° C./5% CO2. Eight replicates of DMSO-treated cells served as controls and cells treated with compound were performed in duplicate.
After incubation, 20 μL of CellTiter-Blue (Promega) was added to each well allowed to incubate for approximately 3 hours. This reagent was a buffered solution which contains resazurin, metabolically active cells were able to reduce rezarurin (blue) into resorufin (pink) which was highly fluorescent. This measured fluorescence was used as a readout for cell viability.
After incubation, the plates were read at Ex 560 nm Em 590 nm (Cytation 3, BioTek). Dose-response curves were generated and EC50 concentration values were calculated using non-linear regression curve fit in the GraphPad Prism (San Diego, Calif.) or Dotmatics' Studies Software (Bishops Stortford, UK). For EC50 of >10 μM, the percent inhibition at 10 μM is provided.

[2] = test system: LL29 cells (primary human fibroblasts derived from IPF patients) treated with TGF-β1, α-smooth muscle actin; assay: Inhibition of the fibrotic process: αSMA staining in TGF-β1 treated primary human fibroblasts from IPF patients (LL29 cells); conditions: Fibroblast, 96 h, LL29 cells treated with TGF-β1 (20 ng/mL), 4 days
Source text: Representative compounds were screened using primary human fibroblasts (derived from IPF patients) treated with TGF-β1 to determine their ability to inhibit the fibrotic process.
Human Fibroblast Cell Culture: Primary human fibroblasts derived from IPF patients (LL29 cells) [^1Xiaoqiu Liu, et.al., “Fibrotic Lung Fibroblasts Show Blunted Inhibition by cAMP Due to Deficient cAMP Response Element-Binding Protein Phosphorylation”, Journal of Pharmacology and Experimental Therapeutics (2005), 315(2), 678-687; ^2Watts, K. L., et.al., “RhoA signaling modulates cyclin D1 expression in human lung fibroblasts; implications for idiopathic pulmonary fibrosis”, Respiratory Research (2006), 7(1), 88] were obtained from American Type Culture Collection (ATCC) and expanded in F12 medium supplemented with 15% Fetal Bovine Serum and Penicillin/Streptomycin.
Compound Screening: Each compound was dissolved in DMSO as a 10 mM stock and used to prepare compound source plates. […] LL29 cells are plated at 1,500 cells/well in 80 μL/well F12 medium supplemented with 1% Fetal Bovine Serum. One hour after addition of the cells, TGF-β1 (Peprotech; 20 ng/mL) was added to the plates to induce fibrosis (ref. 1 and 2 above). Wells treated with TGF-β1 and containing DMSO were used as controls. Cells were incubated at 37° C. and 5% CO2 for 4 days. Following incubation for 4 days, SYTOX green nucleic acid stain (Life Technologies [Thermo Fisher Scientific]) was added to the wells at a final concentration of 1 μM and incubated at room temperature for 30 min. Cells were then fixed using 4% formaldehyde (Electron Microscopy Sciences), washed 3 times with PBS followed by blocking and permeabilization using 3% Bovine Serum Albumin (BSA; Sigma) and 0.3% Triton X-100 (Sigma) in PBS. Cells were then stained with antibody specific to α-smooth muscle actin (αSMA; Abcam) (ref. 1 and 2 above) in 3% Bovine Serum Albumin (BSA; Sigma) and 0.3% Triton X-100 (Sigma) in PBS, and incubated overnight at 4° C. Cells were then washed 3 times with PBS, followed by incubation with Alexa Flor-647 conjugated secondary antibody (Life Technologies [Thermo Fisher Scientific]) and DAPI at room temperature for 1 hour. Cells were then washed 3 times with PBS and plates were sealed for imaging. αSMA staining was imaged by excitation at 630 nm and emission at 665 nm and quantified using the Compartmental Analysis program on the CellInsight CX5 (Thermo Scientific). Dead or apoptotic cells were excluded from analysis based on positive SYTOX green staining. % of total cells positive for αSMA were counted in each well and normalized to the average of 11 wells treated with TGF-β1 on the same plate using Dotmatics' Studies Software. The normalized averages (fold change over untreated) of 3 replicate wells for each compound concentration were used to create dose-responses curves and EC50 values were calculated using non-linear regression curve fit in the Dotmatics' Studies Software. For EC50 of >10 μM, the percent inhibition at 10 μM is provided.

IL-6 in THP-1 cells = assay: Inhibition of IL-6 in LPS-stimulated THP-1 human monocyte cells (HTRF); conditions: IL-6 HTRF; for EC50: 500 ng/mL LPS, 22 hours; for inhibition at 10 µM: LPS, read-out: percent inhibition in brackets (given for EC50 >10 μM)
Method: Human Monocyte Cell Culture: Human monocyte cell line (THP-1 cells; Catalog # TIB-202, ATCC, Manassas, Va.) were cultured in Roswell Park Memorial Institute (RPMI) 1640 Medium (Catalog #21870-100, Buffalo, N.Y.) with 1% L-glutamine, 1% HEPES, 1% Sodium Pyruvate, 2% Sodium Bicarbonate supplemented with 100 units/mL penicillin, 50 μg/mL streptomycin, 2-mercaptoethanol (0.05 mM) [basal medium] and 10% fetal bovine serum (Catalog #16140089, Life Technologies, Carlsbad, Calif.) at 37° C. and 5% CO2.
Compound Screening: THP-1 cells were cultured in basal media with 1% FBS for 24 hours before the start of the assay. Each compound was dissolved in DMSO as a 10 mM stock and used to prepare compound source plates. Serial dilution (1:3, 10-point dose-response curves starting from 10 μM) and compound transfer was performed using the ECHO 550 (Labcyte, Sunnyvale, Calif.) into 384-well white low volume assay plates (Greiner Bio-One) with appropriate DMSO backfill for a final DMSO concentration of 0.1%. THP-1 cells were plated at 5000 cells/well in the 384-well plates and incubated at 37° C. for 2 h. 500 ng/mL of LPS was added after 2 hours and cells were incubated for another 22 hours at 37° C. Plates were spun in a centrifuge for 1 minute at […] and a mixture of anti-IL6 XL665, and anti-IL6 Cryptate diluted in reconstitution buffer (Cisbio Inc.) was added to each well. Following incubation for 3 hrs at room temperature, Homogeneous Time-Resolved Fluorescence (HTRF) was measured using the Envision (Perkin Elmer) at 665 nm and […]. The ratio of fluorescence at 665 nm to 620 nm was used as a readout for IL6 quantification. All samples were processed in duplicate. Readings were normalized to DMSO treated cells and normalized activities were utilized for EC50 calculations using the dose-response log (inhibitor) vs. response -variable slope (four parameters) nonlinear regression feature available in GraphPad Prism 5.0 (or Dotmatics). For EC50 of >10 μM, the percent inhibition at 10 μM is provided.

| EC50 [1] | EC50 (SW480 colon cancer cells) | EC50 (IL-6 in THP-1 cells) | SMILES | EC50 [2] | inhibition at 10 µM (IL-6 in THP-1 cells) |
| --- | --- | --- | --- | --- | --- |
| 1260 nM | 1390 nM | 3530 nM | Fc1ccccc1-c1cncc2[nH]c(-c3n[nH]c4ccc(-c5cncc(CNCC6CCCC6)c5)nc34)nc12 [Compound 81, 1-Cyclopentyl-N-((5-(3-(7-(2-fluorophenyl)-3H-imidazo[4,5-c]pyridin-2-yl)-1H-pyrazolo[4,3-b]pyridin-5-yl)pyridin-3-yl)methyl)methanamine] | 1940 nM | – |
| 9700 nM | 4420 nM | 1400 nM | O=C(Nc1cncc(-c2ccc3[nH]nc(-c4nc5c(N6CCCCC6)cncc5[nH]4)c3n2)c1)C1CC1 [Compound 188, N-(5-(3-(7-(Piperidin-1-yl)-3H-imidazo[4,5-c]pyridin-2-yl)-1H-pyrazolo[4,3-b]pyridin-5-yl)pyridin-3-yl)cyclopropanecarboxamide] | 4940 nM | – |
| 2330 nM | 3590 nM | 6550 nM | FC1(F)CCN(Cc2cncc(-c3ccc4[nH]nc(-c5nc6c(N7CCCCC7)cncc6[nH]5)c4n3)c2)C1 [Compound 194, 5-(5-((3,3-Difluoropyrrolidin-1-yl)methyl)pyridin-3-yl)-3-(7-(piperidin-1-yl)-3H-imidazo[4,5-c]pyridin-2-yl)-1H-pyrazolo[4,3-b]pyridine] | 2710 nM | – |
| 3460 nM | 1180 nM | > 10000 nM | c1ccc(CNCc2cncc(-c3ccc4[nH]nc(-c5nc6c(-c7ccsc7)cncc6[nH]5)c4n3)c2)cc1 [Compound 276, N-Benzyl-1-(5-(3-(7-(thiophen-3-yl)-3H-imidazo[4,5-c]pyridin-2-yl)-1H-pyrazolo[4,3-b]pyridin-5-yl)pyridin-3-yl)methanamine] | 7470 nM | 39.9% |
| 9280 nM | 8710 nM | > 10000 nM | CN(C)CCNc1cc(F)cc(-c2cncc3[nH]c(-c4n[nH]c5ccc(-c6cncc(CNCC7CCCC7)c6)nc45)nc23)c1 [Compound 445, N^1-(3-(2-(5-(5-(((Cyclopentylmethyl)amino)methyl)pyridin-3-yl)-1H-pyrazolo[4,3-b]pyridin-3-yl)-3H-imidazo[4,5-c]pyridin-7-yl)-5-fluorophenyl)-N^2,N^2-dimethylethane-1,2-diamine] | 4020 nM | 45.8% |
| 1710 nM | 2140 nM | 1680 nM | CN(C)CCNc1cc(F)cc(-c2cncc3[nH]c(-c4n[nH]c5ccc(-c6ccccn6)nc45)nc23)c1 [Compound 448, N^1-(3-Fluoro-5-(2-(5-(pyridin-2-yl)-1H-pyrazolo[4,3-b]pyridin-3-yl)-3H-imidazo[4,5-c]pyridin-7-yl)phenyl)-N^2,N^2-dimethylethane-1,2-diamine] | 941 nM | – |
| 3430 nM | 9340 nM | > 10000 nM | Fc1cccc(-c2cncc3[nH]c(-c4n[nH]c5ccc(-c6cncc(OCCN7CCCC7)c6)nc45)nc23)c1 [Compound 486, 3-(7-(3-Fluorophenyl)-3H-imidazo[4,5-c]pyridin-2-yl)-5-(5-(2-(pyrrolidin-1-yl)ethoxy)pyridin-3-yl)-1H-pyrazolo[4,3-b]pyridine] | 2120 nM | 47.4% |
| 3390 nM | 2180 nM | 44 nM | COc1cncc(-c2ccc3[nH]nc(-c4nc5c(N6CCCCC6)cncc5[nH]4)c3n2)c1 [Compound 584, 5-(5-Methoxylpyridin-3-yl)-3-(7-(piperidin-1-yl)-3H-imidazo[4,5-c]pyridin-2-yl)-1H-pyrazolo[4,3-b]pyridine] | 1650 nM | – |
| 1920 nM | 2540 nM | 8780 nM | CN1CCN(c2cncc3[nH]c(-c4n[nH]c5ccc(-c6cncc(OC7CCCCC7)c6)nc45)nc23)CC1 [Compound 611, 5-(5-(Cyclohexyloxy)pyridin-3-yl)-3-(7-(4-methylpiperazin-1-yl)-3H-imidazo[4,5-c]pyridin-2-yl)-1H-pyrazolo[4,3-b]pyridine] | 1330 nM | – |
